These results are taken from patent US8703811B2, “Small molecule inhibitors of Plasmodium falciparum dihydroorotate dehydrogenase” (Genzyme Corporation, priority 2008, dated 2014).

The test system of one series is P. falciparum 3D7. Put plainly: Inhibition of in vitro P. falciparum culture, [3H]-hypoxanthine uptake, 3D7. Type of series: cell-based. Conditions: Plasmodium falciparum, 3D7, Erythrocyte; [3H]-hypoxanthine uptake by parasite infected erythrocytes; read-out: 3D7 IC50. Summed up: (§1)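 Parasite growth inhibition measured as relative reduction of [3H]-hypoxanthine uptake in in vitro cultures. Values from non-linear regression fit, using relative growth velocity in place of product-formation rate.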

The nature of series [1]: Normal Human Dermal Fibroblast Toxicity Screen. Format: cell-based. The note with it: human, normal human dermal fibroblasts; four days exposure, Alamar Blue; read-out: Dermal Fibroblast LC50. The method, then: The Normal Human Dermal Fibroblast Toxicity Screen Protocol is designed to determine whether compound mixtures, breakouts or single compounds are toxic to normal human dermal fibroblasts. The screen involves plating the dermal fibroblasts and then exposing them to the compounds for four days, then cell viability is measured using Alamar Blue reagent.
Harvested Dermal Fibroblast cells were diluted in Growth Media to 0.25 to 0.3×10^5 cells/mL. […] NOTE: One plate, the T=0 plate required that 20-30 wells be seeded and all the other plates had 96 wells seeded. Plates were incubated in 37° C./5% CO2 incubator for 24 hours.
Alamar Blue solution (25 μL/well) was added to the T=0 plate and the plate was agitated. The plate in 37° C./5% CO2 incubator was incubated for 3 hours, agitated the and the fluorescence was measured. 10% Tween 20 stock (10 μL) was added into rows A-D in column 1 (positive control). DMSO (0.5 μL) was added into column 2 (negative control). Compounds were placed into designated wells for desired testing as follows:
Plates were mixed on the shaker, then incubated in 37° C./5% CO2 incubator for 96 hours.
Alamar Blue solution (25 μL/well) was added to the plates containing the compounds, and the plates were agitated. The plates were incubated in 37° C./5% CO2 incubator for 3 hours, agitated and then the fluorescence was measured.
Background: The colour change of resazurin is a common sign of viable cells or microbes.

The next series deals with scDHODH (Saccharomyces cerevisiae (strain ATCC 204508 / S288c) (Baker's yeast), UniProt P28272). Put plainly: DCIP assay with fumarate, scDHODH. Type of series: biochemical. Conditions: 115 μM fumarate in lieu of CoQD.
scDHODH, sequence (P28272 whole entry): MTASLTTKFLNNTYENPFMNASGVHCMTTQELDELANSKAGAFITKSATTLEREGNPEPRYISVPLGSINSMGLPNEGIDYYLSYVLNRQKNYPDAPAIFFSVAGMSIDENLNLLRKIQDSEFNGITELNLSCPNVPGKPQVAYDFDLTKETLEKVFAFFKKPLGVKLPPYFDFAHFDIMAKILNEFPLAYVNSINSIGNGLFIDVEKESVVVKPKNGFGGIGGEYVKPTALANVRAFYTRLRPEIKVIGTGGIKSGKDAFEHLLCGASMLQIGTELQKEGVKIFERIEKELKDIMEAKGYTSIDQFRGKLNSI
In the next series the test system is P. falciparum D10. Put plainly: Inhibition of in vitro P. falciparum culture, [3H]-hypoxanthine uptake, D10. Type of series: cell-based. The note with it: Plasmodium falciparum, D10, Erythrocyte; [3H]-hypoxanthine uptake by parasite infected erythrocytes; read-out: D10 IC50. The protocol: (§2) P. falciparum strains D10, 3D7, HB3, and Dd2 were obtained from the Malaria Research and Reference Reagent Resource Center (Manassas, Va.). The parasite strains were maintained in vitro by method of Trager and Jensen. The inhibition of P. falciparum growth in the presence of drug was assessed by the relative reduction of [^3H]-hypoxanthine uptake as previously described. Inhibition data were fitted to Equation 1 using non-linear regression analysis except that the relative velocity of parasite growth was substituted for the rate of product formation.

Another series concerns the target pbDHODH (Plasmodium berghei, UniProt A0A509AEH5). Put plainly: DCIP assay, pbDHODH. Conditions: 200 μM L-DHO, 18 μM CoQD, 100 μM DCIP, 20 nM enzyme. Format: biochemical, P. berghei. The source says:
(§3) Type 2 DHODH activity was monitored with either the direct assay measuring the formation of orotate or via a chromogen reduction assay using DCIP. Although the extinction coefficient and absorption wavelength are preferable for the chromogen reduction assay, the inorganic electron acceptor DCIP can be utilized by DHODH as the final electron acceptor in lieu of CoQn when the endogenous substrate is at a low concentration. As such, the direct assay was used to measure the binding affinity of pfDHODH to CoQD and L-DHO. The enzymatic reaction was performed by varying the L-DHO concentration (1-400 μM) or CoQD concentration (1-200 μM) while keeping the other substrate constant and in excess. The formation of orotate was measured continuously at 296 nm (ε296=4.3 mM^−1 cm^−1). Inhibition of DHODH by small molecules was evaluated using the chromogen based assay with a final substrate concentration of 200 μM L-DHO, 18 μM CoQD, and 100 μM DCIP, unless otherwise noted. The reduction of DCIP was monitored at 600 nm (ε600=18.8 mM^−1 cm^−1).
(§4) Substrate specificity and enzyme inhibition data was analyzed with GraphPad Prism Version 4 for Windows (GraphPad Software). Kinetic constants were calculated by non-linear regression fitting of the data to the Michaelis-Menten equation [36]. IC50 values were determined by non-linear regression fitting of the data to Equation 1: […]

The next series addresses pvDHODH (Plasmodium vivax, UniProt A5K1N1). Put plainly: DCIP assay, pvDHODH. Format: biochemical, P. vivax. Conditions: 200 μM L-DHO, 18 μM CoQD, 100 μM DCIP, 20 nM enzyme.
Text: as §3, §4

Series [2] has as its target T1, pfDHODH (Plasmodium falciparum (isolate 3D7), UniProt Q08210). Put plainly: DHODH chromogen reduction (DCIP) assay, pfDHODH. Format: biochemical, P. falciparum. Conditions: 200 μM L-DHO.
The target of the next series is hsDHODH (Homo sapiens (Human), UniProt Q02127). Put plainly: DCIP assay, hsDHODH. The note with it: DCIP assay; 200 μM L-DHO, 18 μM CoQD, 100 μM DCIP, 20 nM enzyme; read-out: hsDHODH IC50. Format: biochemical.
hsDHODH, sequence (Q02127 29-395 limits assumed): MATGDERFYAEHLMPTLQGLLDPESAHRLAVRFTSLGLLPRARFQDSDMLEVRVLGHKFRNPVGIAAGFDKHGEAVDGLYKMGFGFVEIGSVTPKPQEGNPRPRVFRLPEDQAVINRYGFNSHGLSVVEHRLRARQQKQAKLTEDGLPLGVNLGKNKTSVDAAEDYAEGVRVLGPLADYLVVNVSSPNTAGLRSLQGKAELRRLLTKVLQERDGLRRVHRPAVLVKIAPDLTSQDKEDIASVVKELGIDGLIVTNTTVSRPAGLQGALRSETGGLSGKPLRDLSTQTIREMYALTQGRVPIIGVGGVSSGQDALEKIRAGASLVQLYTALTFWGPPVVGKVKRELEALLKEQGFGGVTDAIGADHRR
Another series relates to P. falciparum Dd2. Put plainly: Inhibition of in vitro P. falciparum culture, [3H]-hypoxanthine uptake, Dd2. Format: cell-based. The note with it: Plasmodium falciparum, DD2, Erythrocyte, [3H]-hypoxanthine uptake by parasite infected erythrocytes; read-out: Dd2 IC50. Summed up: as §1
Series [3] relates to P. falciparum D10-scDHODH. Nature of the series: Inhibition of transgenic D10-scDHODH parasites, [3H]-hypoxanthine uptake. Format: cell-based. The method, then:
as §2
Transgenic parasites expressing scDHODH were generated as described by Painter et al. except that full length scDHODH was cloned directly into the pGem3Z vector without a GFP tag. The resultant plasmid was transfected into ring stages of P. falciparum D10 by electroporation and maintained in culture using standard methods under the selection of WR99210.

Series [4] in a line: Renal Proximal Tubule Epithelial Cell Toxicity Screen. Format: cell-based. The method, then: The Renal Proximal Tubule Epithelial Cell Toxicity Screen is designed to determine whether compound mixtures, breakouts or single compounds are toxic to normal renal epithelial cells. […] Basically, the screen consists of plating renal epithelial cells, exposing them to the desired compound(s) for 4 days and measuring cell viability using the Alamar Blue reagent.
Harvested Kidney Epithelial cells were diluted in REGM to 1.5×10^4 cells/mL. […] NOTE: One plate, the T=0 plate required that 20-30 wells be seeded, and all the other plates had 96 wells seeded. Plates were incubated in 37° C./5% CO2 incubator for 24 hours.
Alamar Blue solution (25 μL/well) was added to the T=0 plate and mixed. The plate was incubated in 37° C./5% CO2 incubator for 4 hours, mixed and then the fluorescence was measured. 10% Tween 20 stock (10 μL) was added into rows A-D in column 1 (positive control). DMSO (0.5 μL) was added into column 2 (negative control). Compounds were placed into designated wells for desired testing as follows:
Plates were mixed on the shaker, and then incubated in 37° C./5% CO2 incubator for 96 hours. Day 6:
Alamar Blue solution (25 μL/well) was added to the plates containing the compounds and mixed. Plates were incubated in 37° C./5% CO2 incubator for 4 hours, mixed and the fluorescence was measured.

Series [5] addresses T1, pfDHODH. Nature of the series: pfDHODH activity with FeCy as electron acceptor. Conditions: read-out: % Inhibition of Product Formation Rate with 50 μM Inhibitor, FeCy.
Procedure: Inhibitors of DHODH, as classified by the chromogen reduction assay, were also evaluated for activity using FeCy as an electron acceptor. A final concentration of 5-50 nM DHODH, 200 μM L-DHO and 100 μM FeCy in Buffer C was used in this assay. Both the reduction of FeCy and the formation of orotate was monitored at 420 nm (ε420=1 mM^−1 cm^−1) and 290 nm (ε280=2 mM^−1 cm^−1), respectively, noting that two molecules of FeCy are reduced for one molecule of L-DHO. As with the previous assays, the reaction was performed at 25° C. and initiated with the addition of enzyme.
The next series has as its system P. falciparum HB3. Nature of the series: Inhibition of in vitro P. falciparum culture, [3H]-hypoxanthine uptake, HB3. The note with it: Plasmodium falciparum, HB3, Erythrocyte; [3H]-hypoxanthine uptake by parasite infected erythrocytes; read-out: HB3 IC50. Format: cell-based. The protocol:
as §2

T1 sequence (Q08210 159-565 limits assumed): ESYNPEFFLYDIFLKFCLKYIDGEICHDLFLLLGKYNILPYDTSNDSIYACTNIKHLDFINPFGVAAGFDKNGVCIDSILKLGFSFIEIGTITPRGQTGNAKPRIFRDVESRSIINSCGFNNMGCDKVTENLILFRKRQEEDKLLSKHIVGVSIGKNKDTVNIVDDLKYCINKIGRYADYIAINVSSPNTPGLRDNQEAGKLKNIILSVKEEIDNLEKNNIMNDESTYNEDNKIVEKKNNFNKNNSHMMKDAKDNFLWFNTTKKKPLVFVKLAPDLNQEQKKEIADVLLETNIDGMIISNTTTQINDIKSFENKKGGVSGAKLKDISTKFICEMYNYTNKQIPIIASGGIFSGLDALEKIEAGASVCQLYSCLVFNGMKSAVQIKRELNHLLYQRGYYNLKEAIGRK
pbDHODH, sequence (A0A509AEH5 1-517): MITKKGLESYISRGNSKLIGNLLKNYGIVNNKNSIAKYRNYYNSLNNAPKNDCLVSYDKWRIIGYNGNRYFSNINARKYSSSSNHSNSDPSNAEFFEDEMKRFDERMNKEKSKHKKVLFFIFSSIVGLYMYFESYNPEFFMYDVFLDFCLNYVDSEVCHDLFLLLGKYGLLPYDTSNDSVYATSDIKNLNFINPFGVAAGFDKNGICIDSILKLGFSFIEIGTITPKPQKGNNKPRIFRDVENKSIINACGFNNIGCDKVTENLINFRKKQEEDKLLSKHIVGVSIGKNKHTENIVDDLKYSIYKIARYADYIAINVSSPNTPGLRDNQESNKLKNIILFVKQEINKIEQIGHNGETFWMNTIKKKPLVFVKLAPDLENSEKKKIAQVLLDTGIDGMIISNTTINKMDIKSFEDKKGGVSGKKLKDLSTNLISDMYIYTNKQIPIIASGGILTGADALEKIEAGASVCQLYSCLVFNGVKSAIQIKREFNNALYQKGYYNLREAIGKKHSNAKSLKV
pvDHODH, sequence (A5K1N1 1-572): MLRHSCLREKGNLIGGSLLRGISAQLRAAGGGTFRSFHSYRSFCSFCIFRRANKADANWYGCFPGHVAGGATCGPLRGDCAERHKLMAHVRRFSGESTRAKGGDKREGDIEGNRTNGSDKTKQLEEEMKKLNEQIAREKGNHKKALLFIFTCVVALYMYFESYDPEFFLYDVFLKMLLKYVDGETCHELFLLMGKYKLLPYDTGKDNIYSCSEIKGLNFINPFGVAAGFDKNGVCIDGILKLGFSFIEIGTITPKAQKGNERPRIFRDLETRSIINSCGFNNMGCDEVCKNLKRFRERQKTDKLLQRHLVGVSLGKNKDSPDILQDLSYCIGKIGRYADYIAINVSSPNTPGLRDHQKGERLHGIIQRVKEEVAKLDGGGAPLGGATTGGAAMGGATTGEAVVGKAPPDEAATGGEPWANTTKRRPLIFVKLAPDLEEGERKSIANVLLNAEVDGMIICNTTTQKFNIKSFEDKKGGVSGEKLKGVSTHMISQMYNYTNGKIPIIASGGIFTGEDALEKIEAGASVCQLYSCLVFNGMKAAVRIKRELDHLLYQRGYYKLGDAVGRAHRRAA

Consider `O=C(NC1CC1)c1ccc(N2CCSc3ccccc32)s1` [Compound 5, 5(2H-benzo[b][1,4]thiazin-4(3H)-yl)-N-cyclopropylthiophene-2-carboxamide], for which the IC50 (in general, the concentration that inhibits the measured activity by half) in the series with P. falciparum 3D7 is 890 nM; against scDHODH it was above 10000 nM; in the series with P. falciparum D10, 950 nM; at pbDHODH, 380 ± 60 nM; against pvDHODH, 280 ± 10 nM; on pfDHODH [2] (DCIP assay, 18 μM CoQD, 100 μM DCIP, 20 nM enzyme, read-out: pfDHODH IC50) it was 250 ± 30 nM. For the same compound, the IC50 was 7900 ± 400 nM at hsDHODH; 620 nM with P. falciparum Dd2; above 10000 nM in series [3] (Plasmodium falciparum, D10, read-out: D10-scDHODH IC50); 910 nM in the series with P. falciparum HB3. Moreover, the CC50 at 96 h in [1] and in [4] was above 62000 nM throughout. The inhibition (as a rule, the share of the control response that was lost under treatment) at 50 µM at pfDHODH [2] (50 μM inhibitor, 100 μM CoQD, 60 μM DCIP, read-out: % Inhibition of Product Formation Rate with 50 μM Inhibitor, CoQD) came to 97%; on pfDHODH [5], 23%. For the same compound, the “efficacy against D10-scDHODH strain compared to D10 parent strain” value in series [3] (dose-effect curves, FIG. 5) was “significantly reduced”.
